Source: PubChem BioAssay AID330 (DTP/NCI, 2004)
Where “and” joins values, the source holds several entries; their conditions need not be identical. Equal entries are not always repeated. Toxic doses and inconclusive results are not listed. How the source made its calls: active means survival T/C of 150% or more; inactive means T/C below 125% in these data.

Test system: P388 leukemia ip, CD2F1 mice, survival T/C
Assay: NCI In Vivo Anticancer Drug Screen. Data for tumor model P388 Leukemia (intraperitoneal) in CD2F1 (CDF1) mice
Details: endpoint: median survival time, higher = longer survival
Method in brief: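 Mice carrying the transplanted tumor received test compound or vehicle. Survival was recorded in each group, and the value is the treated-group measurement divided by that of the vehicle-treated control group.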

[1] = dose: 50.0 mg/kg/injection, schedule: Q01DX005 (ip), vehicle: Klucel (hydroxypropylcellulose) (HPC)
[2] = dose: 100.0 mg/kg/injection, schedule: Q01DX005 (ip), vehicle: Klucel (hydroxypropylcellulose) (HPC)
[3] = dose: 50.0 mg/kg/injection, schedule: Q01DX009 (ip), vehicle: Klucel (hydroxypropylcellulose) (HPC)
[4] = dose: 100.0 mg/kg/injection, schedule: Q01DX009 (ip), vehicle: Klucel (hydroxypropylcellulose) (HPC)
[5] = dose: 200.0 mg/kg/injection, schedule: Q01DX009 (ip), vehicle: Klucel (hydroxypropylcellulose) (HPC)
[6] = dose: 12.5 mg/kg/injection, schedule: Q01DX005 (ip), vehicle: saline with Tween-80
[7] = dose: 25.0 mg/kg/injection, schedule: Q01DX005 (ip), vehicle: saline with Tween-80
[8] = dose: 50.0 mg/kg/injection, schedule: Q01DX005 (ip), vehicle: saline with Tween-80
[9] = dose: 200.0 mg/kg/injection, schedule: Q01DX005 (ip), vehicle: saline with Tween-80

Measured: T/C

O=C(O)CC(CS(=O)CP(=O)(O)O)C(=O)O (stereo not drawn)
inactive: dose: 60.0 mg/kg/injection, schedule: Q01DX005 (ip), vehicle: saline 93 % of control | dose: 120.0 mg/kg/injection, schedule: Q01DX005 (ip), vehicle: saline 98 % of control | dose: 240.0 mg/kg/injection, schedule: Q01DX005 (ip), vehicle: saline 95 % of control

O=C(O)C[CH2][Sn](=[O])[CH2]CC(=O)O
inactive: [1] 101 % of control | [2] 101 % of control | dose: 200.0 mg/kg/injection, schedule: Q01DX005 (ip), vehicle: Klucel (hydroxypropylcellulose) (HPC) 102 % of control

CN1C(=O)N(CCCl)C(=O)C(C)(C2=CCCCC2)C1=O (stereo not drawn)
inactive: [3] 92 % of control | [4] 92 % of control | [5] 90 % of control

N#Cc1nn(-c2ccccc2)sc1=N
inactive: dose: 3.13 mg/kg/injection, schedule: Q01DX009 (ip), vehicle: other 104 % of control | dose: 6.25 mg/kg/injection, schedule: Q01DX009 (ip), vehicle: other 110 % of control | dose: 12.5 mg/kg/injection, schedule: Q01DX009 (ip), vehicle: other 100 % of control | dose: 25.0 mg/kg/injection, schedule: Q01DX009 (ip), vehicle: other 94 % of control | dose: 50.0 mg/kg/injection, schedule: Q01DX009 (ip), vehicle: other 88 % of control | dose: 100.0 mg/kg/injection, schedule: Q01DX009 (ip), vehicle: other 88 % of control

COc1ccc(S(=O)(=O)N/N=C(/C(=O)O)c2ccccc2)cc1
inactive: [6] 95 % of control | [7] 94 % of control | [8] 106 % of control | dose: 100.0 mg/kg/injection, schedule: Q01DX005 (ip), vehicle: saline with Tween-80 100 % of control | [9] 109 % of control and 112 % of control | dose: 400.0 mg/kg/injection, schedule: Q01DX005 (ip), vehicle: saline with Tween-80 109 % of control

O=C1CSCc2sccc21
inactive: dose: 60.0 mg/kg/injection, schedule: Q01DX005 (ip), vehicle: saline with Tween-80 94 % of control | dose: 120.0 mg/kg/injection, schedule: Q01DX005 (ip), vehicle: saline with Tween-80 106 % of control | dose: 240.0 mg/kg/injection, schedule: Q01DX005 (ip), vehicle: saline with Tween-80 101 % of control

Cc1cc(NCCCN(C)C)c2ccc3cc(NCCCN(C)C)c(C)nc3c2n1
inactive: dose: 25.0 mg/kg/injection, schedule: Q01DX009 (ip), vehicle: saline with Tween-80 96 % of control | dose: 50.0 mg/kg/injection, schedule: Q01DX009 (ip), vehicle: saline with Tween-80 104 % of control | dose: 100.0 mg/kg/injection, schedule: Q01DX009 (ip), vehicle: saline with Tween-80 102 % of control

CCCCCCCCCCCCCCCCS(=O)(=O)N/N=C(\c1ccc(C(C)C)cc1)N1CCOCC1
inactive: [3] 90 % of control | [4] 89 % of control | [5] 90 % of control

Clc1nc2n[nH]nc2nc1Cl
inactive: dose: 3.13 mg/kg/injection, schedule: Q04DX003 (ip), vehicle: saline 100 % of control | dose: 6.25 mg/kg/injection, schedule: Q04DX003 (ip), vehicle: saline 90 % of control | dose: 12.5 mg/kg/injection, schedule: Q04DX003 (ip), vehicle: saline 95 % of control

CC(C)CC(=O)O[C@@H]1OC=C(COC2OC(CO)C(O)C(O)C2O)[C@H]2CC(=O)[C@@H](C)[C@@H]12 (stereo partly drawn)
inactive: dose: 8.0 mg/kg/injection, schedule: Q01DX005 (ip), vehicle: saline 118 % of control | dose: 16.0 mg/kg/injection, schedule: Q01DX005 (ip), vehicle: saline 116 % of control | dose: 32.0 mg/kg/injection, schedule: Q01DX005 (ip), vehicle: saline 107 % of control | dose: 64.0 mg/kg/injection, schedule: Q01DX005 (ip), vehicle: saline 110 % of control

CS(C)(=O)=Nc1ccc(I)cc1
inactive: dose: 50.0 mg/kg/injection, schedule: Q04DX002 (ip), vehicle: Klucel (hydroxypropylcellulose) (HPC) 105 % of control | dose: 100.0 mg/kg/injection, schedule: Q04DX002 (ip), vehicle: Klucel (hydroxypropylcellulose) (HPC) 102 % of control and 104 % of control and 105 % of control | dose: 100.0 mg/kg/injection, schedule: Q04DX003 (ip), vehicle: saline 98 % of control | dose: 200.0 mg/kg/injection, schedule: Q04DX002 (ip), vehicle: Klucel (hydroxypropylcellulose) (HPC) 101 % of control and 113 % of control and 119 % of control | dose: 200.0 mg/kg/injection, schedule: Q04DX003 (ip), vehicle: saline 100 % of control | dose: 400.0 mg/kg/injection, schedule: Q04DX002 (ip), vehicle: Klucel (hydroxypropylcellulose) (HPC) 101 % of control and 105 % of control and 120 % of control | dose: 400.0 mg/kg/injection, schedule: Q04DX003 (ip), vehicle: saline 94 % of control

CC(=O)OC(NC(=O)c1cc(C)cc(C)c1)c1ccncc1 (stereo not drawn)
inactive: [1] 97 % of control | [2] 86 % of control

COC(=O)/C=C(\Br)C(=O)OC
inactive: dose: 1.56 mg/kg/injection, schedule: Q01DX009 (ip), vehicle: saline with Tween-80 106 % of control | dose: 3.12 mg/kg/injection, schedule: Q01DX009 (ip), vehicle: saline with Tween-80 98 % of control | dose: 6.25 mg/kg/injection, schedule: Q01DX009 (ip), vehicle: saline with Tween-80 101 % of control

O=[N+]([O-])c1ccc(/C=N/Nc2nnc(-c3ccccc3)c(-c3ccccc3)n2)o1
inactive: [6] 106 % of control | [7] 103 % of control | [8] 93 % of control and 96 % of control | [9] 88 % of control

O=C1c2ccccc2CC1CS(=O)(=O)CC1Cc2ccccc2C1=O (stereo not drawn)
inactive: dose: 100.0 mg/kg/injection, schedule: Q04DX002 (ip), vehicle: saline 100 % of control | dose: 200.0 mg/kg/injection, schedule: Q04DX002 (ip), vehicle: saline 100 % of control | dose: 400.0 mg/kg/injection, schedule: Q04DX002 (ip), vehicle: saline 91 % of control and 96 % of control

COc1ccc2c(c1)CCC(c1nc3ccc(Cl)cc3[nH]c1=O)=C2O
inactive: dose: 60.0 mg/kg/injection, schedule: Q01DX005 (ip), vehicle: Klucel (hydroxypropylcellulose) (HPC) 101 % of control | dose: 120.0 mg/kg/injection, schedule: Q01DX005 (ip), vehicle: Klucel (hydroxypropylcellulose) (HPC) 92 % of control | dose: 240.0 mg/kg/injection, schedule: Q01DX005 (ip), vehicle: Klucel (hydroxypropylcellulose) (HPC) 91 % of control

C=C(C)c1c2ccccc2cc2cccc(Sc3ccc(C(C)(C)C)cc3)c12
inactive: dose: 100.0 mg/kg/injection, schedule: Q04DX002 (ip), vehicle: saline with Tween-80 101 % of control | dose: 200.0 mg/kg/injection, schedule: Q04DX002 (ip), vehicle: saline with Tween-80 96 % of control | dose: 400.0 mg/kg/injection, schedule: Q04DX002 (ip), vehicle: saline with Tween-80 92 % of control

CS(=O)(=O)c1cc([N+](=O)[O-])cc([N+](=O)[O-])c1Cl
inactive: dose: 2.5 mg/kg/injection, schedule: Q01DX009 (ip), vehicle: saline with Tween-80 109 % of control | dose: 5.0 mg/kg/injection, schedule: Q01DX009 (ip), vehicle: saline with Tween-80 90 % of control

COC(=O)CS(=O)(=O)CCS(=O)(=O)CC(=O)OC
inactive: dose: 12.5 mg/kg/injection, schedule: Q01DX009 (ip), vehicle: saline 99 % of control and 100 % of control | dose: 25.0 mg/kg/injection, schedule: Q01DX009 (ip), vehicle: saline 94 % of control and 98 % of control | dose: 50.0 mg/kg/injection, schedule: Q01DX009 (ip), vehicle: saline 99 % of control and 124 % of control and 98 % of control | dose: 100.0 mg/kg/injection, schedule: Q01DX009 (ip), vehicle: saline 103 % of control and 104 % of control and 113 % of control | dose: 200.0 mg/kg/injection, schedule: Q01DX009 (ip), vehicle: saline 114 % of control

O=c1[nH]cnc2cc([N+](=O)[O-])ccc12
inactive: dose: 12.0 mg/kg/injection, schedule: Q01DX005 (ip), vehicle: Klucel (hydroxypropylcellulose) (HPC) 101 % of control | dose: 25.0 mg/kg/injection, schedule: Q01DX005 (ip), vehicle: Klucel (hydroxypropylcellulose) (HPC) 101 % of control | [1] 101 % of control and 106 % of control | [2] 111 % of control
